Laboratory results as given in ChEMBL document CHEMBL1133290, “Quantitative structure-intestinal permeability relationship of benzamidine analogue thrombin inhibitor” (2000).

Organism: Rattus norvegicus
Assay: Everted sac permeability (ESA) of rat small intestine, after addition of thrombin inhibitor
Assay type: functional

SMILES | Log ESA
CC(=O)N1CCN(C(=O)C(Cc2cccc(C(=N)N)c2)NS(=O)(=O)NCc2ccc(CO)cc2)CC1 (stereo unspecified) | -0.836
CC(=O)N1CCN(C(=O)C(Cc2cccc(C(=N)N)c2)NS(=O)(=O)NCCc2ccc3ccccc3c2)CC1 (stereo unspecified) | -1.032
COc1cccc(CNS(=O)(=O)NC(Cc2cccc(C(=N)N)c2)C(=O)N2Cc3ccccc3C2C(=O)O)c1OC (stereo unspecified) | -0.879
CC(=O)N1CCN(C(=O)C(Cc2cccc(C(=N)N)c2)NS(=O)(=O)NCc2cc(Br)cc3ccccc23)CC1 (stereo unspecified) | -1.367
CC(=O)N1CCN(C(=O)C(Cc2cccc(C(=N)N)c2)NS(=O)(=O)NCCc2ccc3c(c2)OCCO3)CC1 (stereo unspecified) | -0.654
CC(=O)N1CCN(C(=O)C(Cc2cccc(C(=N)N)c2)NS(=O)(=O)NCC2CCCCO2)CC1 (stereo unspecified) | -0.708
CC(=O)N1CCN(C(=O)C(Cc2cccc(C(=N)N)c2)NS(=O)(=O)NCC(C)c2ccccc2)CC1 (stereo unspecified) | -0.889
COc1cccc(CNS(=O)(=O)NC(Cc2cccc(C(=N)N)c2)C(=O)N2CCC(C)CC2C(=O)O)c1OC (stereo unspecified) | -1
CC(=O)N1CCN(C(=O)C(Cc2cccc(C(=N)N)c2)NS(=O)(=O)NCc2ccccc2)CC1 (stereo unspecified) | -0.81
CCOc1ccccc1CNS(=O)(=O)NC(Cc1cccc(C(=N)N)c1)C(=O)N1CCN(C(C)=O)CC1 (stereo unspecified) | -0.876
CC(=O)N1CCN(C(=O)C(Cc2cccc(C(=N)N)c2)NS(=O)(=O)NCC2CCCN2Cc2ccccc2)CC1 (stereo unspecified) | -0.963
COc1cccc(CNS(=O)(=O)NC(Cc2cccc(C(=N)N)c2)C(=O)N2CCN(C(C)=O)CC2)c1 (stereo unspecified) | -0.804
COc1ccc(CNS(=O)(=O)NC(Cc2cccc(C(=N)N)c2)C(=O)N2CCN(C(C)=O)CC2)cc1OC (stereo unspecified) | -0.633
CC(=O)N1CCN(C(=O)C(Cc2cccc(C(=N)N)c2)NS(=O)(=O)NCCc2cccc([N+](=O)[O-])c2)CC1 (stereo unspecified) | -0.688
COc1cc(CNS(=O)(=O)NC(Cc2cccc(C(=N)N)c2)C(=O)N2CCN(C(C)=O)CC2)ccc1[N+](=O)[O-] (stereo unspecified) | -0.559
CC(=O)N1CCN(C(=O)C(Cc2cccc(C(=N)N)c2)NS(=O)(=O)NCc2c(F)c(F)c(F)c(F)c2F)CC1 (stereo unspecified) | -0.65
CC(=O)N1CCN(C(=O)C(Cc2cccc(C(=N)N)c2)NS(=O)(=O)NCC(C)(c2ccccc2)c2ccccc2)CC1 (stereo unspecified) | -1.456
CC(=O)N1CCN(C(=O)C(Cc2cccc(C(=N)N)c2)NS(=O)(=O)NCc2ccc3ccccc3c2)CC1 (stereo unspecified) | -0.932
COc1cccc(CNS(=O)(=O)NC(Cc2cccc(C(=N)N)c2)C(=O)N2CCN(C(C)=O)CC2)c1O (stereo unspecified) | -0.833
CCOc1c(CNS(=O)(=O)NC(Cc2cccc(C(=N)N)c2)C(=O)N2CCN(C(C)=O)CC2)sc2ccccc12 (stereo unspecified) | -0.983
CNC1CCN(C(=O)C(Cc2cccc(C(=N)N)c2)NS(=O)(=O)NCc2cccc(OC)c2OC)CC1 (stereo unspecified) | -0.686
COc1ccc(CNS(=O)(=O)NC(Cc2cccc(C(=N)N)c2)C(=O)N2CCN(C(C)=O)CC2)c(OC)c1 (stereo unspecified) | -0.602
CC(=O)N1CCN(C(=O)C(Cc2cccc(C(=N)N)c2)NS(=O)(=O)NCCc2cc3c(cc2[N+](=O)[O-])OCO3)CC1 (stereo unspecified) | -0.564
CC(=O)N1CCN(C(=O)C(Cc2cccc(C(=N)N)c2)NS(=O)(=O)NCc2cccc3cc(O)ccc23)CC1 (stereo unspecified) | -0.59
CC(=O)N1CCN(C(=O)C(Cc2cccc(C(=N)N)c2)NS(=O)(=O)NCCc2nccc3ccccc23)CC1 (stereo unspecified) | -0.635
CC(=O)N1CCN(C(=O)C(Cc2cccc(C(=N)N)c2)NS(=O)(=O)NCCc2ccc3c(c2)OCO3)CC1 (stereo unspecified) | -0.636

SMILES | Log ESA
COc1ccccc1CNS(=O)(=O)NC(Cc1cccc(C(=N)N)c1)C(=O)N1CCN(C(C)=O)CC1 (stereo unspecified) | -0.815
CC(=O)N1CCN(C(=O)C(Cc2cccc(C(=N)N)c2)NS(=O)(=O)NCCc2cccc(N)c2)CC1 (stereo unspecified) | -0.75
CC(=O)N1CCN(C(=O)C(Cc2cccc(C(=N)N)c2)NS(=O)(=O)NCCOC2CCCCC2)CC1 (stereo unspecified) | -0.708
COc1ccc2c(CNS(=O)(=O)NC(Cc3cccc(C(=N)N)c3)C(=O)N3CCN(C(C)=O)CC3)cccc2c1 (stereo unspecified) | -0.86
CC(=O)N1CCN(C(=O)C(Cc2cccc(C(=N)N)c2)NS(=O)(=O)NCC2CNc3ccccc3C2)CC1 (stereo unspecified) | -0.674
CC(=O)N1CCN(C(=O)C(Cc2cccc(C(=N)N)c2)NS(=O)(=O)NCc2ccc(Cl)cc2[N+](=O)[O-])CC1 (stereo unspecified) | -0.67
CC(=O)N1CCN(C(=O)C(Cc2cccc(C(=N)N)c2)NS(=O)(=O)NCCc2cccc3ncccc23)CC1 (stereo unspecified) | -0.686
CC(=O)N1CCN(C(=O)C(Cc2cccc(C(=N)N)c2)NS(=O)(=O)NCc2ccccc2O)CC1 (stereo unspecified) | -0.514
CC(=O)N1CCN(C(=O)C(Cc2cccc(C(=N)N)c2)NS(=O)(=O)NCCCc2ccccc2C(=O)N2CCCC2)CC1 (stereo unspecified) | -1.027
CC(=O)N1CCN(C(=O)C(Cc2cccc(C(=N)N)c2)NS(=O)(=O)NCc2cc(C)c(C)c(C)c2)CC1 (stereo unspecified) | -0.818
CC(=O)N1CCN(C(=O)C(Cc2cccc(C(=N)N)c2)NS(=O)(=O)NCc2cccc(Oc3ccccc3)c2)CC1 (stereo unspecified) | -1.149
COc1cccc(CNS(=O)(=O)NC(Cc2cccc(C(=N)N)c2)C(=O)N2CCN(CCO)CC2)c1OC (stereo unspecified) | -0.796
CC(=O)N1CCN(C(=O)C(Cc2cccc(C(=N)N)c2)NS(=O)(=O)NCC2COc3ccccc3O2)CC1 (stereo unspecified) | -0.726
CC(=O)N1CCN(C(=O)C(Cc2cccc(C(=N)N)c2)NS(=O)(=O)NCc2cccc3ccccc23)CC1 (stereo unspecified) | -0.842
CC(=O)N1CCN(C(=O)C(Cc2cccc(C(=N)N)c2)NS(=O)(=O)NCC(c2ccccc2)c2ccccc2)CC1 (stereo unspecified) | -1.092
CC(=O)N1CCN(C(=O)C(Cc2cccc(C(=N)N)c2)NS(=O)(=O)NCc2ccc(-c3ccccc3)cc2)CC1 (stereo unspecified) | -1.174
CC(=O)N1CCN(C(=O)C(Cc2cccc(C(=N)N)c2)NS(=O)(=O)NCc2ccc(CCc3ccccc3)cc2)CC1 (stereo unspecified) | -1.252
CC(=O)N1CCN(C(=O)C(Cc2cccc(C(=N)N)c2)NS(=O)(=O)NCc2c[nH]c3ccccc23)CC1 (stereo unspecified) | -0.914
CC(=O)N1CCN(C(=O)C(Cc2cccc(C(=N)N)c2)NS(=O)(=O)NCCc2cccc3ccccc23)CC1 (stereo unspecified) | -1.114
CC(=O)N1CCN(C(=O)C(Cc2cccc(C(=N)N)c2)NS(=O)(=O)NCc2ccccc2-c2ccccc2)CC1 (stereo in doubt; 5) | -1.071
CC(CNS(=O)(=O)NC(Cc1cccc(C(=N)N)c1)C(=O)N1CCCC(C(=O)O)C1)c1ccccc1 (stereo in doubt; 9) | -0.762
N=C(N)c1cccc(CC(NS(=O)(=O)NCc2cccc3ccccc23)C(=O)N2CCCC(C(=O)O)C2)c1 (stereo in doubt; 10) | -0.752
CC(CNS(=O)(=O)NC(Cc1cccc(C(=N)N)c1)C(=O)N1CCCC(C(=O)O)C1)c1ccccc1 (stereo in doubt; 11) | -0.759
N=C(N)c1cccc(CC(NS(=O)(=O)NCc2cccc3ccccc23)C(=O)N2CCCC(C(=O)O)C2)c1 (stereo in doubt; 12) | -0.893
CC(=O)N1CCN(C(=O)C(Cc2cccc(C(=N)N)c2)NS(=O)(=O)NCc2ccccc2-c2ccccc2)CC1 (stereo in doubt; 20) | -0.987
